Laboratory results reported in ChEMBL document CHEMBL1152941, “Isocoumarin glucosides from the scale insect fungus Torrubiella tenuis BCC 12732” (J Nat Prod, 2009).
Values after ≈ are worked out from the molar mass of the structure shown. Active and inactive are the calls of the source. The rule behind the calls is not given here.

Assays:
NCI-H187 = assay: Cytotoxicity against human NCI-H187 cells by resazurin microplate assay; assay type: functional, cell-based
Plasmodium falciparum = assay: Antimalarial activity against Plasmodium falciparum K1 by microculture radioisotope technique; assay type: functional, organism-based
KB = assay: Cytotoxicity against human KB cells by resazurin microplate assay; assay type: functional, cell-based
[1] = test system: Mycobacterium tuberculosis; assay: Antitubercular activity against Mycobacterium tuberculosis H37Ra by green fluorescent protein microplate assay; assay type: functional
Human alphaherpesvirus 1 = assay: Antiviral activity against HSV1 by green fluorescent protein microplate assay; assay type: functional, organism-based
MCF7 = assay: Cytotoxicity against human MCF7 cells by resazurin microplate assay; assay type: functional, cell-based
Vero = assay: Cytotoxicity against african green monkey Vero cells by green fluorescent protein microplate assay; assay type: cell-based; settings: Chlorocebus sabaeus
[2] = Human alphaherpesvirus 1, read-out: IC50

Structure (SMILES) | Activity (NCI-H187) | Activity (Plasmodium falciparum) | Activity (KB) | MIC [1] | IC50 (Human alphaherpesvirus 1) | other results
CO[C@H]1[C@H](O)[C@@H](O)[C@H](Oc2cc(O)c3c(=O)oc(CO)cc3c2)O[C@@H]1CO | inactive | inactive | inactive | inactive | Not Active | Activity (MCF7): inactive
Cc1cc2cc(O)cc(O)c2c(=O)o1 | inactive | inactive | inactive | inactive | Not Active | –
COc1cccc2c1C(=O)c1c(O)c3c(c(O)c1C2=O)C[C@@](O)(C(=O)CO)C[C@@H]3O[C@H]1C[C@H](N)[C@H](O)[C@H](C)O1 [DOXORUBICIN] | – | – | – | – | – | IC50 (NCI-H187): 0.058 mg/L (≈ 0.107 µM); IC50 (KB): 0.144 mg/L (≈ 0.265 µM); IC50 (MCF7): 0.899 mg/L (≈ 1.65 µM)
CO[C@H]1[C@H](O)[C@@H](O)[C@H](Oc2cc(O)c3c(=O)oc(C)cc3c2)O[C@@H]1CO | inactive | inactive | inactive | inactive | Not Active | –
Nc1nc2c(ncn2COCCO)c(=O)[nH]1 [ACYCLOVIR] | – | – | – | – | – | IC50 (Human alphaherpesvirus 1; [2]): 6.86 mg/L (≈ 30.5 µM)
NNC(=O)c1ccncc1 [ISONIAZID] | – | – | – | 0.023 mg/L (≈ 0.168 µM) | – | –
O=c1oc(CO)cc2cc(O)cc(O)c12 | inactive | – | – | 25 mg/L (≈ 120 µM) | – | IC50 (Human alphaherpesvirus 1; [2]): 50 mg/L (≈ 240 µM)
C[C@H]1[C@@H](O)O[C@@H]2O[C@@]3(C)CC[C@H]4[C@H](C)CC[C@@H]1[C@@]24OO3 [ARTENIMOL] | – | – | – | – | – | IC50 (Plasmodium falciparum): 0.0011 mg/L (≈ 0.00387 µM)
Cc1c2ccncc2c(C)c2c1[nH]c1ccccc12 [ELLIPTECINE] | – | – | – | – | – | IC50 (Vero): 1.16 mg/L (≈ 4.71 µM)
CO[C@H]1[C@H](O)[C@@H](O)[C@H](OCc2cc3cc(O)cc(O)c3c(=O)o2)O[C@@H]1CO | inactive | inactive | inactive | inactive | Not Active | –
